Experimental findings from patent publication US20250002465A1, “TRIMERIC COPPER CATALYSTS, INTERMEDIATES FOR MAKING SUCH CATALYSTS AND METHOD FOR PREPARING A CYCLOADDITION COMPOUND” (University of Kentucky Research Foundation, priority 2023, published 2025) are described below.

One data set has as its system MDA-MB-468. As to the kind of experiment: Cytotoxicity, MTT assay. Particulars: read-out: IC50 (cytotoxicity), MDA-MB-468 cells, 72 hours. On the technique in general: Tetrazolium assays rely on reduction of a dye to a coloured formazan, in cell work by metabolically active cells.
A short description of data set [1]: Catalytic CuAAC reaction in water (phenylacetylene, benzyl azide), conversion by GC.
Data set [2] in a line: Cyclic voltammetry, oxidation potential. Format: physicochemical.
The next data set relates to SUM-159. As to the kind of experiment: Cytotoxicity, MTT assay. Format: cell-based. Particulars: SUM-159 cells, 72 hours. The protocol:
FIG. 5 is a-b) Effect of 6 and 7 on cell viability in TNBC cells treated with the complexes for 72 hours. Mean±s.e.m. n=3. c) Structure of AuDTC-alkyne used for click experiment.
We first evaluated the cytotoxicity of the complexes (6 and 7) in triple-negative breast cancer cells, MDA-MB-468 and SUM-159 using MTT assay.

Data set [3] is described as follows: Stability of the complex to air, moisture and H2O2 (colour, EPR, UV-visible spectroscopy). Particulars: for Colour change in the presence of air or moisture: over the course of weeks, solid or solution. Format: physicochemical. The protocol: FIG. 2 illustrates Left: UV-vis absorbance spectra of 3+(CH3CN)4CuPF6 in H2O after 18 hours with 5 molar equivalents of H2O2. Right: UV-vis absorbance spectra after addition of N-methylimidazole to 3+(CH3CN)4CuPF6+5 molar equivalents of H2O2 in H2O after 18 hours incubation.
One of the most important aspects of catalysts for the biologically compatible CuAAC reaction is the ability to perform the reaction while not forming any ROS. Most Cu (I) complexes can be rapidly oxidized by oxygen to Cu (II) and form O2—, one of the first ROS that can then go on to react in myriad ways. […] To further verify this, we performed EPR measurements on solutions of 6 in the absence and presence of H2O2.
We then tested the chemical oxidation of solutions of 7 by UV-visible spectroscopy […]. Increasing amounts of H2O2 were added and the absorption spectrum was measured (FIG. 2).
Without the addition of oxidant, an absorption peak at 280 nm is the lowest energy feature in the spectrum. Aqueous solutions of Cu^2+ ions absorb visible light, typically due to low energy d-d transitions. Therefore, if Cu^2+ was formed, we would expect to observe the appearance of a new absorption in the visible region.

A further data set deals with MDA-MB-468 cells. The data set can be described thus: Intracellular Cu(I)-catalyzed click chemistry and mitochondria colocalization, confocal microscopy. The following applies: 100 μM catalyst, no THPTA or ascorbate. The class given is cell-based.
The mark [4] stands for this setting: catalyst concentration 20 mM, room temperature, 4 hr, average of two runs.
The mark [5] stands for this setting: CH2Cl2, glassy carbon working electrode.

A value given as a limit tells only on which side of the number the result lay.

As usually defined, the IC50 is the midpoint of a concentration-inhibition curve. Regarding `OCCCn1cc(CN(Cc2cn(CCCO)nn2)Cc2cn(CCCO)nn2)nn1.[Cu]` [THPTA, Cu tris-(hydroxypropyltriazolyl)-methylamine, reference compound], the half-maximal inhibitory concentration (IC50) in the data set on MDA-MB-468 was 22.4 µM.
For `c1ccc2[nH]c([C@H]3C[C@@H](c4nc5ccccc5[nH]4)C[C@@H](c4nc5ccccc5[nH]4)C3)nc2c1` [compound 1, Cis,cis-1,3,5-cyclohexanetribenzimidazole-2-yl], the Conversion in data set [1] (setting [4]) was ~18%.
Consider `CCCCn1c2ccccc2nc1[C@H]1C[C@@H](c2nc3ccccc3n2CCCC)C[C@@H](c2nc3ccccc3n2CCCC)C1` [compound 2, Cis,cis-1,3,5-cyclohexanetribenzimidazole-1-butyl-2-yl], for which, in data set [1] (setting [4]), the Conversion entry is listed as “nearly quantitative”.
On to `COCCOCCn1c2ccccc2nc1[C@H]1C[C@@H](c2nc3ccccc3n2CCOCCOC)C[C@@H](c2nc3ccccc3n2CCOCCOC)C1` [compound 3, Cis,cis-1,3,5-cyclohexanetribenzimidazole-1-(2-(2-methoxyethoxy)ethyl)-2-yl], for which, in data set [1] (setting [4]), the Conversion entry is recorded as “nearly quantitative”. The Oxidation wave entry in data set [2] (setting [5]) is given as “irreversible oxidation near the same potential”.
For “(Cis,cis-1,3,5-cyclohexanetribenzimidazole-1-(2-(2-methoxyethoxy)ethyl)-2-yl)2(Cu(I)PF6)3 [compound 7]”, the half-maximal inhibitory concentration (IC50) in the data set with MDA-MB-468 was 78.6 µM; in the data set on SUM-159 it was > 100 µM. Besides, the Conversion in data set [1] (50 mM loading, water, 35° C., 1 hour) is recorded as 75%; in data set [1] (catalyst concentration 0.5 μM, water, 35° C., 18 hr), 33%; in data set [1] (catalyst concentration 0.5 μM, water, ambient conditions, 18 hours) it was 6%; in data set [1] (catalyst concentration 1.0 μM, water, 35° C., 18 hr), 64%; in data set [1] (catalyst concentration 1 μM, water, ambient conditions, 18 hours), 8%; in data set [1] (catalyst concentration 5 μM, water, 35° C., 18 hr) it was ~88%. Also, the Conversion in data set [1] (catalyst concentration 5 μM, water, ambient conditions, 18 hours) is ~13%; in data set [1] (catalyst concentration 10 μM, water, 35° C., 18 hr), “quantitative”; in data set [1] (catalyst concentration 10 μM, water, ambient conditions, 18 hours), ~13%; in data set [1] (catalyst concentration 50 μM, water, ambient conditions, 18 hours), ~36%. Also, the Oxidation wave result is given as “did not observe an oxidation wave” in data set [2] (0.1 M LiClO4 in H2O, Hg/Hg2SO4 reference) and 1.85 V vs SCE in data set [2] (setting [5]). For the same compound, the “Irreversible reduction wave (Cu+/Cu0)” value in data set [2] (CH2Cl2) is ~0 V vs. SCE. Further, the “Change of UV-visible absorption spectrum with N-methylimidazole and H2O2” value in data set [3] (in-situ formed 7, five equivalents of H2O2 plus N-methylimidazole) is “no change in the absorption spectrum”. For the same compound, in data set [3], the “Colour change in the presence of air or moisture” value is reported as “did not change color”. Moreover, the “Change of UV-visible absorption spectrum with H2O2” value in data set [3] (up to five molar equivalents of peroxide, 18 hours, room temperature) is reported as “no appreciable change in the absorption spectrum”. Further, the “Click reaction between AuDTC-alkyne and azide fluorescein in cells” value with MDA-MB-468 cells was “effectively catalyzed”.
Take “(Cis,cis-1,3,5-cyclohexanetribenzimidazole-1-butyl-2-yl)2(Cu(I)PF6)3 [compound 6]”: the half-maximal inhibitory concentration (IC50) amounted to 46.7 µM in the data set with MDA-MB-468 and 84.1 µM in the data set with SUM-159. For the same compound, the Conversion in data set [1] (setting [4]) was 98%. The “Colour change in the presence of air or moisture” value in data set [3] is “did not change color”. Also, the “EPR active species (Cu2+) after H2O2 addition” value in data set [3] (solution, EPR) is on record as “no EPR active species”.
